Patent US20240190821A1, “SULFONAMIDE SUBSTITUTED N-(1H-INDOL-7-YL)BENZENESULFONAMIDES AND USES THEREOF” (Triana Biomedicines, Inc., priority 2021, published 2024)
Where two headings read alike, the source gives them in different places.

Legend:
[1] = molecular target: T1, DCAF15-RBM39 ternary complex (Homo sapiens, UniProt Q14498+Q66K64); assay: Compound-induced DCAF15-RBM39 ternary complex formation, AlphaLISA; assay type: biochemical; conditions: AlphaLISA, His-tagged DCAF15 complex and biotin-carrying RBM39; read-out: Ternary-RBM39 (RRM2) EC50
T1 construct: (RRM2)
In short: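 Protein mixture incubated with compounds for one hour at room temperature; AlphaLISA beads then added sequentially, 1-2 h at room temperature after each. No-compound wells served as negative controls; His-tagged biotinylated GST tracked assay performance.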

RBM39 = molecular target: T2, RBM39 (Homo sapiens, UniProt Q14498+Q66K64); assay: Western blot assay for degradation of RBM39 in HCT116 cells; assay type: cell-based; conditions: HCT116, 4 h
T2 construct: endogenous in cells; host or cells: HCT116
Description: Example 107: Western Blot Assay Procedure for Assessing Degradation of RBM39 in HCT116 Cells
HCT116 cells were used with passage numbers ranging from 13 to 25. Cells were seeded in 12-well plated at a density of 1 million cells per well in 1 mL cell culture medium containing McCoy's 5A medium (Cat. #16600082, ThermoFisher, Waltham, MA), 10% Fetal Bovine Serum (Cat. #26140, ThermoFisher, Waltham, MA) and 1% Pen-Strep (Cat. #. 15070063, ThermoFisher, Waltham, MA) and incubated overnight. The next morning, compounds were serially diluted (1:3, 9 points) in the medium separately and were prepared 2× the final assay concentration. Subsequently, 1.0 mL medium containing DMSO or the appropriate concentration of each compound was added to respective wells. The final DMSO concentration in each well was 0.1%. […] Cells were then washed once with 1 mL of ice cold Dulbecco's phosphate-buffered saline (Cat. #28374, ThermoFisher, Waltham, MA) and then lysed with 100 μl of lysis buffer containing 1× RIPA (Cat. #. 89900, ThermoFisher, Waltham, MA) and HALT protease and phosphatase inhibitor (Cat. #78442, ThermoFisher, Waltham, MA) on ice for 10 minutes with intermittent rocking. Lysates were then sonicated in a sonication bath (3 pulses of 10 sec each with 1 min incubation on ice between each pulse). Samples were then centrifuged for 20 min at 14,000 rpm for 20 min. Supernatants were then transferred to fresh microfuge tubes and stored frozen at −80° C. until use. Total protein quantitation in lysate samples was done using the BCA protein quantitation kit following the manufacturer's instructions. For polyacrylamide gel electrophoresis, each sample ([…] total protein), was diluted with Laemmli sample buffer (Cat. #. 1610747, BioRad, Hercules, CA) by adding 9 ul of lysate to 3 ul of sample buffer containing 10% β-mercaptoethanol. Samples were then denatured at 95° C. for 5 minutes in a heat block, centrifuged at 14,000 rpm for 5 min, and placed on ice. Subsequently, 12 ul of each sample was loaded on 4-20% Tris/Glycine gels and electrophoresed in 1×Tris/Glycine SDS buffer at 80 (constant) volts for 2 h. Resolved samples were then transferred from gels to PVDF membrane using the BioRad Turbo-transfer unit with the Turbo default program (Cat. #. 1704150EDU, BioRad, Hercules, CA). For immunoblotting, membranes were first blocked for 1 hour at room temperature using Odyssey Blocking Buffer (Cat. #: 927-60001, Li-cor, Lincoln, NE) with continuous rocking. Membrane was then incubated with primary antibodies, anti-RBM39 (Sigma Cat. #: HPA001591, St. Louis, MO) and anti-β-actin (Cell Signaling Cat. #3700S, Danvers, MA), diluted 1000 fold each, at 4° C. for overnight. Subsequently, membrane was washed three times for at room temperature with continuous rocking (5 minutes each wash) using TBS buffer containing 0.1% Tween-20. After the final wash, secondary antibodies, IRDye 680 RD Goat anti Mouse IgG H+L (Cat. #: 926-68070, Li-cor, Lincoln, NE), and IRDye 800CW Goat anti Rabbit IgG H+L (Cat. #: 926-32211, Li-cor, Lincoln, NE), each diluted 10,000-fold, were added to the membranes and incubated at room temperature for 1 h with continuous rocking. Membranes were then washed 3 times with 1×TBS and scanned using Odessey CLx imaging system (Li-cor, Lincoln, NE) using default settings. Band intensity in images was quantified using the Image Studio Lite software (Version 5.2). Signal intensity for RBM-39 specific bands were normalized using the signal intensity for β-actin-specific band, and percent degradation was assessed by comparing RBM39 signal in compound-treated vs. DMSO-treated samples.

HCT116 cells = assay: HCT116 cell viability using CellTiter-Glo; assay type: cell-based; conditions: read-out: 3-Day CTG IC50 in HCT116
Description: Example 108: Measurement of HCT116 Cell Viability Using CellTiter-Glo
HCT116 cells with the passage number ranging from 13 to 25 were plated in an opaque-walled 384 well plate (Corning, Cat. #3765, Corning, NY) at a density of 1000 cells/well in 50 μl medium containing McCoy's 5A medium (Cat. #16600082, ThermoFisher, Waltham, MA), 10% Fetal Bovine Serum (Cat. #26140, ThermoFisher, Waltham, MA) and 1% Pen-Strep (Cat. #. 15070063, ThermoFisher, Waltham, MA). After overnight incubation, cells were treated with various concentrations of compounds (0-10 μM) in DMSO (final concentration of 0.2% DMSO) for 72 h. CellTiter-Glo® Reagent (Cat. #G7573, Promega, Waltham, MA) was then added to all wells. The plates were placed on an orbital shaker to mix the content and induce cell lysis. The plates were then incubated at room temperature for 10 minutes to stabilize luminescent signal. The luminescence was recorded using Envision multilabel plate reader (Perkin-Elmers, Waltham, MA) and the data was fit by using Excel-fit (Microsoft, Redmond, WA).

DCAF15 = DCAF15 (Homo sapiens, UniProt Q66K64); assay: Binary interaction between compounds and DCAF15, HTRF competition assay; assay type: binding; conditions: HTRF competition with Alexa Fluor 647 tracer, His-tagged DCAF15 complex; read-out: DCAF15 IC50
In short: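 HTRF competition format: DCAF15 premixed 15 min at room temperature with anti-6His-Eu cryptate antibody, then combined with tracer and compound. Binding derived from ratiometric signal with titration curves; no-DCAF15 wells as controls.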

[2] = Homo sapiens, HCT-116, HCT116, 72 h

Sequence of DCAF15 (Q66K64 whole entry): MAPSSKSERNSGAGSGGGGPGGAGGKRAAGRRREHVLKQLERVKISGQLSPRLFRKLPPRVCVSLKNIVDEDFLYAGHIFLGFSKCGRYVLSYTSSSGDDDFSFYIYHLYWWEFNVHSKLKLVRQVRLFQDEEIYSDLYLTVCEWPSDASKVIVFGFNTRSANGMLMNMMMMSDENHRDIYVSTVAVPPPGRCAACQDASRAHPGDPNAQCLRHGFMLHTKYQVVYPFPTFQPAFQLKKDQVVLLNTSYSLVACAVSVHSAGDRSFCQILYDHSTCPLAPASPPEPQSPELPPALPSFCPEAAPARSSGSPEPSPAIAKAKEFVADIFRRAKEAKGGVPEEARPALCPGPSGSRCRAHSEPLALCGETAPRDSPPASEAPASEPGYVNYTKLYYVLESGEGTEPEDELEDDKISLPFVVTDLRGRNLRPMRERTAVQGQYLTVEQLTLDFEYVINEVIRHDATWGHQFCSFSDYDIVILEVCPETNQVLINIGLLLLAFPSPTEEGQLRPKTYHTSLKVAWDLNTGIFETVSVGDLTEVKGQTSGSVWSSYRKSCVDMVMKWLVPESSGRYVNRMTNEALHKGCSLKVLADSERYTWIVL
Sequence of DCAF15 (Q16531 whole entry partner): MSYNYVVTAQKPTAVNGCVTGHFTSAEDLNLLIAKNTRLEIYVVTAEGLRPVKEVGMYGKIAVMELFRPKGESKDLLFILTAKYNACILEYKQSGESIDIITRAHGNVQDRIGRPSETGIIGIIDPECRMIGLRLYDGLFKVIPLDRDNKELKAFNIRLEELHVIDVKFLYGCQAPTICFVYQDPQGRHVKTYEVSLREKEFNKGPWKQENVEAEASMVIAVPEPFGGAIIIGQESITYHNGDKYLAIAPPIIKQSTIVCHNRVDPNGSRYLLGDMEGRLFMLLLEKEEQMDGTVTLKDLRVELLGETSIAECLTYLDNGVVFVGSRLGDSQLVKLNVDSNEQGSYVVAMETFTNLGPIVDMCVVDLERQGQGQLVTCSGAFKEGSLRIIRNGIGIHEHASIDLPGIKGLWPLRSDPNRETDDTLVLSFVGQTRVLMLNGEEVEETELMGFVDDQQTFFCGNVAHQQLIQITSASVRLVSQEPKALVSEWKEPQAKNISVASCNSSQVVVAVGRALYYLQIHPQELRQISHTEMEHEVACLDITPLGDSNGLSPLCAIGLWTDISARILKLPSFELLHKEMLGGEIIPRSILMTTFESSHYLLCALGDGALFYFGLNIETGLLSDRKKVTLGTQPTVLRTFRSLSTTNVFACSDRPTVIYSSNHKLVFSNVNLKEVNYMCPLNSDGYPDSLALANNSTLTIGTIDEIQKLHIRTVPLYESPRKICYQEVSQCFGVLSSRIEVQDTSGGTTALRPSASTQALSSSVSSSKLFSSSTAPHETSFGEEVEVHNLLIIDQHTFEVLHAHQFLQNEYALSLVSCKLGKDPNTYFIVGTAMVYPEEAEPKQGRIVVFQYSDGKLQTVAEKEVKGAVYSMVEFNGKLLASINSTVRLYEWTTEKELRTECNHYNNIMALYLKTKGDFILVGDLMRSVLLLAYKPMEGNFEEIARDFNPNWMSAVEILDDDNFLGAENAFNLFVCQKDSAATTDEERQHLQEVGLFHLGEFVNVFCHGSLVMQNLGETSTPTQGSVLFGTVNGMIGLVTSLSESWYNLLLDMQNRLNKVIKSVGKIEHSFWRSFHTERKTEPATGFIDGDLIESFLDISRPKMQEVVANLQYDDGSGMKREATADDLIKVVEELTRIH
T1 sequence (Q66K64 whole entry): as the sequence (Q66K64 whole entry) above
T1 sequence (Q14498 250-328 limits assumed): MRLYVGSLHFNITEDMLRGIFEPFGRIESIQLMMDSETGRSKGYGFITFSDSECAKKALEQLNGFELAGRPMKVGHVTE
T1 sequence (Q16531 whole entry partner): as the sequence (Q16531 whole entry partner) above

Row | Compound | EC50 [1] [nM] | DC50 (RBM39) [nM] | IC50 (HCT116 cells; HCT116, 72 h) [nM] | IC50 (DCAF15) [nM] | IC50 (HCT116 cells; [2]) [nM]
1 | Nc1ccc(S(=O)(=O)Nc2cnc3c(Cl)cccc3n2)cc1 [CQS, cloroquinoxaline sulfonamide, reference compound] | < 5000 | < 100 | < 5000 |  | 
2 | COC(=O)CNS(=O)(=O)c1ccc(S(=O)(=O)Nc2ccc(Cl)c3c(Cl)c[nH]c23)cc1 [Compound 1, methyl ((4-(N-(3,4-dichloro-1H-indol-7-yl)sulfamoyl)phenyl)sulfonyl) glycinate] | < 1000 | < 1000 |  | < 100000 | < 1000
3 | COCCNS(=O)(=O)c1ccc(S(=O)(=O)Nc2ccc(Cl)c3c(Cl)c[nH]c23)cc1 [Compound 2, N^1-(3,4-dichloro-1H-indol-7-yl)-N^4-(2-methoxyethyl)benzene-1,4-disulfonamide] | < 1000 |  |  |  | < 1000
4 | NCCCCCCCNS(=O)(=O)c1ccc(S(=O)(=O)Nc2ccc(Cl)c3c(Cl)c[nH]c23)cc1 [Compound 8, N^1-(7-aminoheptyl)-N^4-(3,4-dichloro-1H-indol-7-yl)benzene-1,4-disulfonamide] | < 1000 | < 1000 |  |  | 
5 | O=S(=O)(Nc1ccc(Cl)c2c(Cl)c[nH]c12)c1ccc(S(=O)(=O)N2CCNCC2)cc1 [Compound 42, N-(3,4-dichloro-1H-indol-7-yl)-4-(piperazin-1-ylsulfonyl)benzenesulfonamide] | < 1000 | < 1000 |  |  | < 100
6 | N#Cc1cccc(S(=O)(=O)Nc2ccc(Cl)c3c(Cl)c[nH]c23)c1 [Compound 74, 3-cyano-N-(3,4-dichloro-1H-indol-7-yl)benzenesulfonamide] | < 1000 | < 100 |  |  | 
7 | Cc1ccc(NS(=O)(=O)c2ccc(-n3ccnn3)cc2)c2[nH]cc(C#N)c12 [Compound 95, N-(3-cyano-4-methyl-1H-indol-7-yl)-4-(1H-1,2,3-triazol-1-yl)benzenesulfonamide] | < 1000 | < 100 |  |  | 
8 | Cc1ccc(NS(=O)(=O)c2cccc(-n3ccnn3)c2)c2[nH]cc(C#N)c12 [Compound 96, N-(3-cyano-4-methyl-1H-indol-7-yl)-3-(1H-1,2,3-triazol-1-yl)benzenesulfonamide] | < 1000 | < 100 |  | < 20000 | 
9 | Cc1ccc(NS(=O)(=O)c2cccc(C#N)c2)c2[nH]cc(C(F)F)c12 [Compound 100, 3-cyano-N-(3-(difluoromethyl)-4-methyl-1H-indol-7-yl)benzenesulfonamide] | < 5000 |  |  |  | < 1000
10 | Cc1ccc(NS(=O)(=O)c2cc(F)cc(C#N)c2)c2[nH]cc(C(F)F)c12 [Compound 101, 3-cyano-N-(3-(difluoromethyl)-4-methyl-1H-indol-7-yl)-5-fluorobenzene sulfonamide] | < 5000 |  |  | < 100000 | < 1000
11 | Cc1ccc(NS(=O)(=O)c2cccc(C#N)c2)c2[nH]cc(C#N)c12 [Compound E-7820, E-7820, reference compound] |  |  |  |  | < 1000
12 | NS(=O)(=O)c1ccc(S(=O)(=O)Nc2cccc3c(Cl)c[nH]c23)cc1 [Indisulam, indisulam, reference compound] | < 1000 |  |  |  | < 1000
